# Measurements reported in PubChem BioAssay (NCI).
# Values joined by “and” are separate entries in the source; they are usually repeats but may differ in a detail not shown here. Equal entries are not always repeated.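 How tested: cells in 96-well plates exposed to compound for 48 hours at five concentrations. GI50 marks 50% less growth. TGI marks complete inhibition of growth.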 Where a SMILES comes first, the peptide text is derived from it. [ ]: non-standard residue; d: D form. The star is where a group is joined. Dolaproine = CO[C@@H]([C@@H]1CCCN1)[C@@H](C)C(=O)O; Dil = CC[C@H](C)[C@H](NC)[C@@H](CC(=O)O)OC; X2 = C[C@@H](N*)[C@@H](O)c1ccccc1; NMeV = CN[C@H](C(=O)O)C(C)C
# How the values were obtained:
# Assay in all cases: inhibition of tumour cell growth, NCI panel, 48 h
# [1] = tested on: SF-539 CNS
# [2] = tested on: M14 melanoma
# [3] = tested on: KM12 colon
# [4] = tested on: SW-620 colon
# [5] = tested on: TK-10 renal
# [6] = tested on: COLO 205 colon
# [7] = tested on: LOX IMVI melanoma
# [8] = tested on: 786-0 renal
# [9] = tested on: MOLT-4 leukemia
# [10] = tested on: T-47D breast
# [11] = tested on: HCT-116 colon
# [12] = tested on: NCI-H460 lung
# [13] = tested on: PC-3 prostate
# [14] = tested on: A498 renal
# [15] = tested on: HL-60(TB) leukemia
# [16] = tested on: SK-MEL-2 melanoma
# [17] = tested on: OVCAR-5 ovarian
# [18] = tested on: SNB-19 CNS
# [19] = tested on: OVCAR-4 ovarian
# [20] = tested on: UACC-257 melanoma
# [21] = tested on: SK-MEL-28 melanoma
# [22] = tested on: OVCAR-8 ovarian
# [23] = tested on: CAKI-1 renal
# [24] = tested on: MDA-MB-435
# [25] = tested on: SN12C renal
# [26] = tested on: HOP-92 NSCLC
# [27] = tested on: HOP-62 NSCLC
# [28] = tested on: HCT-15 colon
# [29] = tested on: CCRF-CEM leukemia
# [30] = tested on: UO-31 renal
# [31] = tested on: ACHN renal
# [32] = tested on: K-562 leukemia
# [33] = tested on: SF-295 CNS
# [34] = tested on: MALME-3M melanoma
# [35] = tested on: UACC-62 melanoma
# [36] = tested on: NCI-H226 lung
# [37] = tested on: RPMI-8226 leukemia
# [38] = tested on: OVCAR-3 ovarian
# [39] = tested on: IGROV1 ovarian
# [40] = tested on: SK-OV-3 ovarian
# [41] = tested on: A549 NSCLC
# [42] = tested on: SF-268 CNS
# [43] = tested on: DU-145 prostate
# [44] = tested on: U251 CNS
# [45] = tested on: SR leukemia
# [46] = tested on: NCI/ADR-RES ovarian
# [47] = tested on: HT29 colon
# [48] = tested on: MCF7 breast
# [49] = tested on: NCI-H23 lung
# [50] = tested on: NCI-H522 lung
# [51] = tested on: EKVX NSCLC
# [52] = tested on: SK-MEL-5 melanoma
# [53] = tested on: BT-549 breast
# [54] = tested on: SNB-75 CNS
# [55] = tested on: HS 578T breast
# [56] = tested on: MDA-MB-231 breast
# [57] = tested on: HCC-2998 colon
compound,measurement,setting,value
C=C(CBr)CCCOCc1ccccc1,TGI,[1],34.8 µM
same,TGI,[2],31.9 µM
same,TGI,[3],33.7 µM
same,TGI,[4],> 100 µM
same,TGI,[5],36.3 µM
same,TGI,[6],54 µM
same,TGI,[7],92.9 µM
same,TGI,[8],> 100 µM
same,TGI,[9],> 100 µM
same,TGI,[10],> 100 µM
same,TGI,[11],> 100 µM
same,TGI,[12],35.3 µM
same,TGI,[13],39.8 µM
same,TGI,[14],> 100 µM
same,TGI,[15],72.6 µM
same,TGI,[16],38 µM
same,TGI,[17],33.3 µM
same,TGI,[18],> 100 µM
same,TGI,[19],38.2 µM
same,TGI,[20],> 100 µM
same,TGI,[21],> 100 µM
same,TGI,[22],32.2 µM
same,TGI,[23],18.2 µM
same,TGI,[24],88.2 µM
same,TGI,[25],57.3 µM
same,TGI,[26],49.8 µM
same,TGI,[27],48.6 µM
same,TGI,[28],68.2 µM
same,TGI,[29],> 100 µM
same,TGI,[30],26.8 µM
same,TGI,[31],27.3 µM
same,TGI,[32],> 100 µM
same,TGI,[33],> 100 µM
same,TGI,[34],41.7 µM
same,TGI,[35],47.2 µM
same,TGI,[36],41.5 µM
same,TGI,[37],64.7 µM
same,TGI,[38],37.6 µM
same,TGI,[39],44.3 µM
same,TGI,[40],> 100 µM
same,TGI,[41],> 100 µM
same,TGI,[42],32.5 µM
same,TGI,[43],> 100 µM
same,TGI,[44],> 100 µM
same,TGI,[45],89.8 µM
same,TGI,[46],40 µM
same,TGI,[47],39.2 µM
same,TGI,[48],77.1 µM
same,TGI,[49],30.9 µM
same,TGI,[50],49.1 µM
same,TGI,[51],46.6 µM
same,TGI,[52],35.9 µM
same,TGI,[53],35.4 µM
CC[C@H](C)[C@@H]([C@@H](CC(=O)N1CCC[C@H]1[C@H](OC)[C@@H](C)C(=O)N[C@H](C)[C@@H](O)c1ccccc1)OC)N(C)C(=O)[C@@H](NC(=O)[C@@H](NC)C(C)C)C(C)C (H-[NMeV]V[Dil][Dolaproine]-X2),GI50,[1],< 0.005 µM
same,TGI,[1],0.0128 µM and < 0.0107 µM
same,GI50,[2],< 0.005 µM
same,TGI,[2],0.00705 µM
same,GI50,[3],< 0.005 µM
same,TGI,[3],> 100 µM
same,GI50,[4],< 0.005 µM
same,TGI,[4],> 100 µM
same,GI50,[54],< 0.005 µM
same,TGI,[54],> 50 µM
same,GI50,[5],> 100 µM
same,TGI,[5],> 100 µM
same,GI50,[6],< 0.005 µM
same,TGI,[6],< 0.005 µM
same,GI50,[55],0.0101 µM and < 0.01 µM
same,TGI,[55],> 100 µM
same,GI50,[7],< 0.005 µM
same,TGI,[7],> 100 µM
same,GI50,[56],< 0.005 µM
same,TGI,[56],> 13.1 µM and 1.84 µM
same,GI50,[8],0.00646 µM and < 0.01 µM
same,TGI,[8],> 100 µM
same,GI50,[9],< 0.005 µM
same,TGI,[9],> 100 µM
same,GI50,[11],< 0.01 µM
same,TGI,[11],> 100 µM
same,GI50,[12],< 0.005 µM
same,TGI,[12],> 100 µM
same,GI50,[13],< 0.005 µM
same,TGI,[13],> 100 µM
same,GI50,[14],0.00518 µM
same,TGI,[14],0.387 µM
same,GI50,[15],< 0.005 µM
same,TGI,[15],0.00787 µM and < 0.01 µM
same,GI50,[16],< 0.005 µM
same,TGI,[16],> 100 µM
same,GI50,[17],< 0.005 µM
same,TGI,[17],> 100 µM
same,GI50,[18],< 0.005 µM
same,TGI,[18],> 100 µM
same,TGI,[19],> 100 µM
same,TGI,[20],> 100 µM
same,GI50,[22],0.00764 µM and < 0.01 µM
same,TGI,[22],> 50 µM
same,GI50,[23],< 0.01 µM
same,TGI,[23],> 94.8 µM
same,GI50,[24],< 0.005 µM
same,TGI,[24],< 0.005 µM
same,GI50,[25],< 0.005 µM
same,TGI,[25],> 100 µM
same,TGI,[26],> 100 µM
same,GI50,[27],< 0.005 µM
same,TGI,[27],> 100 µM
same,GI50,[28],0.0444 µM and 0.0233 µM
same,TGI,[28],> 100 µM
same,GI50,[29],< 0.005 µM
same,TGI,[29],> 100 µM
same,GI50,[30],0.0419 µM
same,TGI,[30],> 100 µM
same,GI50,[31],0.024 µM and 0.0202 µM
same,TGI,[31],> 100 µM
same,GI50,[32],< 0.005 µM
same,TGI,[32],> 100 µM
same,GI50,[33],< 0.005 µM
same,TGI,[33],> 100 µM
same,TGI,[34],> 100 µM
same,GI50,[35],< 0.005 µM
same,TGI,[35],> 100 µM
same,GI50,[36],0.0179 µM and < 0.0156 µM
same,TGI,[36],> 50 µM
same,GI50,[37],< 0.005 µM
same,TGI,[37],> 100 µM
same,GI50,[38],< 0.01 µM
same,TGI,[38],0.651 µM
same,GI50,[39],0.00831 µM and < 0.01 µM
same,TGI,[39],> 100 µM
same,GI50,[40],< 0.005 µM
same,TGI,[40],> 100 µM
same,GI50,[41],< 0.005 µM
same,TGI,[41],> 100 µM
same,GI50,[42],0.00638 µM and < 0.0108 µM
same,TGI,[42],> 100 µM
same,GI50,[43],< 0.005 µM
same,TGI,[43],> 100 µM
same,GI50,[57],< 0.005 µM
same,TGI,[57],> 100 µM
same,GI50,[44],< 0.005 µM
same,TGI,[44],> 100 µM
same,GI50,[45],< 0.005 µM
same,TGI,[45],> 100 µM
same,GI50,[46],0.169 µM and 0.118 µM
same,TGI,[46],> 50 µM and 9.41 µM
same,GI50,[47],< 0.005 µM
same,TGI,[47],0.154 µM
same,GI50,[48],< 0.005 µM
same,TGI,[48],> 100 µM
same,GI50,[49],< 0.005 µM
same,TGI,[49],> 50 µM
same,GI50,[50],< 0.005 µM
same,TGI,[50],0.0122 µM and < 0.01 µM
same,GI50,[51],0.00692 µM and < 0.01 µM
same,TGI,[51],> 100 µM
same,GI50,[52],< 0.005 µM
same,TGI,[52],0.0505 µM and 0.0772 µM
same,GI50,[53],< 0.005 µM and 0.0141 µM
same,TGI,[53],0.0507 µM and 0.0821 µM
